Laboratory results published in paper PMC9961948, “Interaction of Amphipathic Peptide from Influenza Virus M1 Protein with Mitochondrial Cytochrome Oxidase” (International Journal of Molecular Sciences, 2023).
“And” between values parts separate entries of the source, which are not always exact repeats. Equal values may be shown once. “Also recorded” adds a separate entry of the source. Read-outs that look alike come from different tables or passages of the source.

What was measured:
[1] = biological target: T1, cytochrome c oxidase (CcO) purified from heart mitochondria (Bos taurus, UniProt P00396+P07471+P68530); test: Cytochrome oxidase activity of solubilized mitochondrial CcO (oxygen uptake); format: biochemical; details: for enzyme activation at low concentrations: solubilized CcO from bovine heart mitochondria and from R. sphaeroides, authors' unpublished data
T1 construct: Cytochrome c oxidase was purified from the heart mitochondria of Bos taurus; from tissue; host or cells: bovine heart mitochondria

[2] = biological target: T1, cytochrome c oxidase (CcO) purified from heart mitochondria; details: earlier studies on steroids, Triton X-100 and thyroid hormones; ref [47],[48],[49]; read-out: dissociation constant of the complex between DM and BABS; cited from earlier work
Description: The inhibition is notable by features characteristic of BABS regulatory site ligands such as some steroids and vitamin D [47], Triton Х-100 [48], and thyroid hormones Т3, Т4 [49]. […] The resistance of peroxidase activity is explained by the fact that the BABS ligands block the proton channel K, which is not involved in the p ...

[3] = biological target: T2, CcO in rat liver mitochondria (Rattus norvegicus, UniProt P00406+P05503); test: CcO activity in the mitochondrial membrane (respiration of rat liver mitochondria); format: biochemical; details: 100 μM peptide added in the course of respiration
T2 construct: Rat liver mitochondria were isolated by differential centrifugation; from tissue; host or cells: rat liver mitochondria

[4] = Permeabilization of calcein-loaded asolectin liposomes (calcein release); details: 5 μM peptide

T2 sequence (P00406 whole entry, other chains not shown): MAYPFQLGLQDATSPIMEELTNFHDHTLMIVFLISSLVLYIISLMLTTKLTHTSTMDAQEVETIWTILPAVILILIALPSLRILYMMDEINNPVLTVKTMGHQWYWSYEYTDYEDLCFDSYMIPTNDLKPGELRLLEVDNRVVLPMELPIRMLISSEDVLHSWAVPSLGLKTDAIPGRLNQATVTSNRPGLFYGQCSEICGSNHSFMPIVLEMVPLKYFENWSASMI

## CCCCCCCCCCCCO[C@@H]1O[C@H](CO)[C@@H](O[C@H]2O[C@H](CO)[C@@H](O)[C@H](O)[C@H]2O)[C@H](O)[C@H]1O [DM, dodecyl-maltoside, reference compound]
[1]; dissociation constant of the enzyme-DM complex in the absence of P4 (Kc), solubilized mitochondrial CcO, X-axis intercept of Ki(app) for P4 versus [DM]
  Kd: 500 µM and ~500 µM
[2]
  Kd: 1000 to 1500 µM

## C[C@H](CCC(=O)O)[C@H]1CC[C@H]2[C@@H]3[C@H](O)C[C@@H]4C[C@H](O)CC[C@]4(C)[C@H]3C[C@H](O)[C@]12C [cholate, reference compound]
[1]
  enzyme activation at low concentrations: 1.5–2 fold

## C[C@H](CCC(=O)O)[C@H]1CC[C@H]2[C@@H]3CC[C@@H]4C[C@H](O)CC[C@]4(C)[C@H]3C[C@H](O)[C@]12C [deoxycholate, reference compound]
[1]
  enzyme activation at low concentrations: 1.5–2 fold
[1]; solubilized mitochondrial CcO, 1 mM DM, 1.2 mM deoxycholate
  maximum activation of CcO: approximately twice

## Ac-STKLWEMLVELGNMDKAVKLWRKLSR-NH2 [A4]
[3]
  effect on respiration rate of mitochondria: complete inhibition
[4]; 100% = after Triton X-100 0.1%
  time to reach the 100% level of calcein release: 3 min
[4]; liposomes 0.1 mg lipid/mL, 20 mM MOPS/Tris pH 7.3, 0.2 mM EDTA, fluorescence 520 nm (excitation 490 nm)
  t1/2 of fluorescence increase (calcein release): ~18 s

## Ac-WVGMALENRKLKKDRLKVLKMLRWT-NH2 [A1]
[1]; solubilized bovine heart CcO 20 nM, oxygen uptake, Clark electrode, 25 °C, BM 50 mM Hepes/Tris pH 7.6, 50 mM KCl, 1 mM (0.05%) DM, 5 mM ascorbate, 0.1 mM TMPD, 10 μM cytochrome c, fit by Equation (1), read-out: Inhibition of CcO, Solubilized, Ki(app)
  Ki: 0.0208 mM
[3]
  effect on respiration rate of mitochondria: does not reduce the rate of enzyme activity; also recorded: almost does not change
[4]
  calcein release compared with P4 and A4: more than two orders of magnitude slower
  rate of fluorescence increase (calcein release): < 1 % of the final level per 1 min
